Laboratory results as given in patent publication US20030148966A1, “Method and composition for inducing apoptosis in cells” (priority 2002, published 2003).
Where “and” joins values, the source holds several entries; their conditions need not be identical. Identical values can stand only once. Like-named read-outs stand apart in the source and are kept apart here.

Legend:
HL-60 cells [1] = conditions: 48 hours
HL-60 cells [2] = experiment: Comet assay (single cell gel electrophoresis), DNA strand breaks; assay type: cell-based, human; conditions: for DNA tail length: % of cells <= 25 μm: 16 hours, alkaline pH 13.0; for DNA single strand breaks: alkaline pH (13.0)
in vitro = conditions: human
HL-60 cells [3] = experiment: Deoxyribonucleotide (dNTP) extraction and DNA-polymerase assay; assay type: cell-based, human; conditions: 16 hours; for % dATP / % dCTP: percent of control
Experimental: The TCA extract was dried using a Speedvac drying system at room temperature and, if necessary, stored at −20° C. until analysis. The assay for dNTP, which is based on the original DNA-polymerase assay^22, was optimized by the use of 96-well plates^23 and tailor-made oligonucleotides^24,25, and was performed as previously described for dCTP^21. After reconstitution of the samples in Hepes-buffered assay buffer (pH 7.3) at 10^7 cells/ml, samples and standards (0, 1, 2.5 and 5 pmol dNTP) were added to diethylaminoethyl (DEAE) filter plates (Millipore, Ettenleur, The Netherlands). This was followed by the addition of demi water (up to 30 μl if a reaction mix, consisting of 10 μl [8-^3H]dATP (25 μM; 1.6 Ci/mmol; 0.04 μCi/μl) for detection of dCTP, dTTP and dGTP and 10 μl[CH3-^3H]dTTP (25 μM; 1.6 Ci/mmol; 0.04 μCi/μl) for dATP detection, 5 μl appropriate oligonucleotide (6 μM. consisting of a primer attached to one of four possible templates specially designed for the detection of one of the four dNTPs), 5 μl Klenow DNA pol I and […] assay buffer. The filterplates were gently vortexed and incubated at room temperature for 2 hours. The wells were washed, the wet filters punched out and radioactivity counted as described^21. The dNTP levels were determined after 16-hours of treatment. At this time point, cells were still alive and membranes intact, preventing non-specific loss of dNTP's^33. […] Whereas, dCTP (89% of control)- and dATP (81% of control)-levels were in the range of control when cells were treated with 5 μM BR, exposure to 20 μM BR, caused a drop in dCTP and dATP levels to 37% and 33%, respectively.

HL-60 cells [4] = experiment: ATP bioluminescence assay (intracellular ATP content); assay type: cell-based, human; conditions: 16 hours, percent of untreated control
Experimental: ATP content was measured with the ATP bioluminescence assay kit HS II from Boehringer Mannheim (Roche Molecular Biochemicals, Mannheim, Germany). Cells were treated with adenosine and BR for 16 hours, and subsequently their viability was measured by trypan blue exclusion. […] An equal amount of cell lysis reagent was then added, and after an incubation period of 5 minutes at room temperature, the samples were transferred to microtiter plates. A Luciferase reagent (100 μl) was added and the signal was detected immediately on a lumi Imager F1 (Roche). Experiments were done in triplicates, and the values of treated samples calculated as percent of untreated controls. […] Cells were harvested and the intercellular ATP content was measured as described in herein. Statistical analysis by t-test confirmed that the differences between ATP-levels after treatment with BR (+/−adenosine) were significant (p<0.05).

leukemia cells = experiment: Oncolytic activity against leukemia cells; assay type: cell-based
HL-60 cells [5] = experiment: Transmission electron microscopy of cell morphology; assay type: cell-based, human; conditions: 48 hours
Experimental: For transmission electron microscopy (TEM) cells treated with PBS (controls), […] glutaraldehyde (in 0.1 M sodium cacodylate buffer with 4% sucrose, pH 7.2) for 45 minutes, washed in sodium cacodylate buffer and post-fixed in 2% osmium tetroxide (in 0.1 M sodium cacodylate buffer with 4% sucrose) for 45 minutes. Following several washes, the cells were concentrated by centrifugation at 150 g for 5 minutes, dehydrated in a graded series of ethanol, washed in propylene oxide, embedded in Epon (Serva, Germany), and sectioned at about 70 nm. The ultra-thin sections were stained with uranyl acetate/lead citrate for observation with a Zeiss EM 902 transmission electron microscope.
The bars at the lower right corners indicated 1.1 μm.

HL-60 cells [6] = experiment: Western blots: PARP, gelsolin and Caspase 3 cleavage; assay type: cell-based, human
Experimental: Cells from treated and untreated cultures were sedimented, washed in cold PBS, and lysed in SDS sample buffer (25 mM TRIS pH 6.8, 3% SDS, 10% glycerol, 36 mM DTT, 0.925 mM EDTA). Equal amounts of protein (calculated with the Dot Metric Protein Assay Kit from Novus Molecular, San Diego, Calif., USA) were loaded onto 10% or 15% polyacrylamide gels. Proteins were electrophoresed at 80 V for 2 to 3 hours, and then transblotted onto PVDF membranes (Hybond P, Amersham International, UK) at 80 V for 2 hours^20. Membranes were quenched in PBS with 0.5% skim milk and 0.05% Tween 20 for 1 hour, incubated with primary antibodies (mouse monoclonal anti PARP C-2-10 used 1:2000, mouse monoclonal anti-gelsolin used 1:2000, Sigma; rabbit polyclonal anti caspase 3 antibody used 1:1000, St. Cruz) overnight at 4° C., and with horseradish peroxidase, conjugated secondary antibody for 2 hours at room temperature. The ECL kit (Amersham International, UK) was used for blot development; chemiluminescence was detected on Kodak Xomat UV films.
Controls were treated with saline for 24 hours and western blots were performed as described herein. The 89 kD cleavage product of PARP and the 41 kD cleavage product of gelsolin could be detected upon treatment with 5 μM and 10 μM BR, and diminished in response to higher doses of BR.
5 μM and 10 μM BR, which mainly induce apoptosis, triggering processing of caspase 3.20 μM and 40 μM BR mainly provokes necrosis. This is also reflected by the reduced levels of activated caspase 3. In the presence of adenosine, 20 μM and 40 μM BR activate caspase 3 and also induce apoptosis. Equal sample loading was controlled by Ponceau S staining.

SMILES: Nc1ncnc2c1ncn2[C@@H]1O[C@H](CO)[C@@H](O)[C@H]1O [Ade, adenosine, reference compound]
- % apopt (HL-60 cells [1]; adenosine alone): 7%
- % necro (HL-60 cells [1]; adenosine alone): 0%
- % total death (HL-60 cells [1]; adenosine alone): 7%
- % viable + apopt (HL-60 cells [1]; adenosine alone): 100%
- DNA tail length: % of cells <= 25 μm (HL-60 cells [2]; adenosine alone): 98% <= 25 μm
- viability at 48 h, 800 µM (in vitro): 93%
- % dATP (HL-60 cells [3]; adenosine alone): 70%
- % dCTP (HL-60 cells [3]; adenosine alone): 64%
- % ATP (HL-60 cells [4]; adenosine alone (800 μM)): 85%

SMILES: CC1=C(/C=C/C(C)=C/C=C/C(C)=C/C(=O)O)C(C)(C)CCC1 [ATRA, all-trans retinoic acid, reference compound]
- % apoptotic cells (HL-60 cells [1]; 120 μM ATRA): 30%
- % necrotic cells (HL-60 cells [1]; 120 μM ATRA): 45%

SMILES: NC(=O)c1cccc([C@@H]2O[C@H](CO)[C@@H](O)[C@H]2O)c1 [BR, benzamide riboside]
- % apopt (HL-60 cells [1]; 5 μM BR +/- adenosine): 69%
- % necro (HL-60 cells [1]; 5 μM BR +/- adenosine): 2%
- % total death (HL-60 cells [1]; 5 μM BR +/- adenosine): 71%
- % viable + apopt (HL-60 cells [1]; 5 μM BR +/- adenosine): 98%
- % apopt (HL-60 cells [1]; 20 μM BR +/- adenosine): 30%
- % necro (HL-60 cells [1]; 20 μM BR +/- adenosine): 51%
- % total death (HL-60 cells [1]; 20 μM BR +/- adenosine): 81%
- % viable + apopt (HL-60 cells [1]; 20 μM BR +/- adenosine): 49%
- DNA single strand breaks (HL-60 cells [2]; 5 μM BR): but not with 5 μM BR treatment
- DNA tail length: % of cells <= 25 μm (HL-60 cells [2]; 20 μM BR +/- adenosine): 50% <= 25 μm
- DNA double strand breaks (HL-60 cells [2]; 20 μM BR, 8 hours, neutral pH (7.5)): induced DNA double strand breaks
- DNA single strand breaks (HL-60 cells [2]; 20 μM BR): DNA single strand breaks occurred
- concentration range of strong oncolytic activity (leukemia cells): 5 to 10 µM
- cell morphology by electron microscopy (HL-60 cells [5]; 5 μM BR): electron dense chromatin marginated at the nuclear envelope as a hallmark of apoptosis
- cell morphology by electron microscopy (HL-60 cells [5]; 20 μM BR): typical necrotic morphology
- cell death and gelsolin cleavage (HL-60 cells [6]; 0.5 μM, 1 μM or 2 μM BR, 24 hours): neither induced cell death, nor gelosin cleavage
- Caspase 3 activation (p20 kD fragment) (HL-60 cells [6]; 5 μM and 10 μM BR, 24 hours): Caspase 3 activation culminated
- cell death mode; gelsolin (41 kD) and PARP (89 kD) fragmentation (HL-60 cells [6]; 5 μM or 10 μM BR, 24 hours): caused apoptosis
- cell death mode; PARP and gelsolin fragmentation (HL-60 cells [6]; 20 μM BR, 24 hours): increase of the fraction of necrotic cells
- Caspase 3 activation (p20 kD fragment) (HL-60 cells [6]; 20 μM or 40 μM BR +/- 800 μM adenosine): activation was inhibited
- % dATP (HL-60 cells [3]; 5 μM BR +/- adenosine): 81%
- % dCTP (HL-60 cells [3]; 5 μM BR +/- adenosine): 89%
- dGTP levels, % of control (HL-60 cells [3]; 5 μM or 20 μM BR): approximately 53%
- % dATP (HL-60 cells [3]; 20 μM BR +/- adenosine): 33%
- % dCTP (HL-60 cells [3]; 20 μM BR +/- adenosine): 37%
- % ATP (HL-60 cells [4]; 5 μM BR +/- adenosine (800 μM)): 50%
- % ATP (HL-60 cells [4]; 20 μM BR +/- adenosine (800 μM)): 3% and 2.7%
